Common to all, as to type: cell-based
For experiment [1], the system named is respiratory syncytial virus (RSV). The experiment in a line: RSV-specific mRNA (SH gene) expression in RSV-treated human PMN, RT-PCR. Particulars: human PMN 1×10^6/ml, RSV 1 m.o.i., cetirizine 100-, 0.1-, 0.01 μg/10^6 PMN, 2 hours and 16 hours at 37° C., FIG. 2. How it is done: (§1) Human granulocytes were isolated from 200 ml of heparinized blood (15 U ml) from healthy donors separated on a Ficoll-metrizoate gradient followed by dextran sedimentation and washed twice at 300 g. This method led to more than 95% pure PMN. The cells were diluted to a final density of 1×10^6 PMN.
(§2) Virus preparation was performed as described by R. ARNOLD et al. in Immunology 82, 126-133 (1994). For crude preparation, respiratory syncytial virus (RSV), Long Stain (ATCC), was grown and titrated in HEP-2 cells. The RSV titre was determined in a plaque-forming unit (PFU) assay. The stock titre of the virus pool used in the study was 5×10^6 PFU/ml. The stock solution was stored at −70° C. until use. Interleukin-8 (IL-8) levels were under the detection limit in the stock solution, as analysed by enzyme-linked immuno sorbent assay (ELISA). The absence of mycoplasma infection was verified by microplasma-specific PCR. […]
The analysis of RSV-specific genomic RNA was performed by coupled reverse transcription and polymerase chain reaction PCR detection of RSV-genomic-RNA encoding for the small hydrophobic protein (SH) of RSV as described previously by R. ARNOLD et al. in Immunology 82, 126-133 (1994). […] Expression of genomic RSVSH RNA was analysed after reverse transcription with sense primers and PCR amplification of the cDNA transcripts. […]

In experiment [2] the test system is RSV-induced IL-8 release from human PMN. As to the kind of experiment: RSV-induced IL-8 release from human PMN, ELISA. The protocol: as §1, §2
(§3) PMN were suspended in RPMI medium at a concentration of 1×10^6/ml. […] Culture supernatants were collected and analyzed for their IL-8 content. IL-8 release was determined using a sandwich ELISA according to the method indicated hereinbefore. […] After addition of p-nitrophenylphosphate (15 mg/ml) for quantification, an ELISA reader and for calculation Mikrotek software (SLT Labinstruments, Crailsheim, Germany) were used. […]
On the technique in general: ELISA stands for enzyme-linked immunosorbent assay.

In experiment [3] the test system is ongoing IL-8 release induced by RSV, human PMN. The experiment in a line: Ongoing IL-8 release induced by RSV in human PMN, delayed cetirizine addition, ELISA. The protocol:
as §1, §2, §3

Molecules are shown by their SMILES. Where a name gives a salt, the structure may show the parent alone.

`O=C(O)COCCN1CCN(C(c2ccccc2)c2ccc(Cl)cc2)CC1` (racemic) [cetirizine dihydrochloride, 2-[2-[4-[(4-chlorophenyl)phenylmethyl]-1-piperazinyl]ethoxy]-acetic acid]: in experiment [1], the “RSV-specific mRNA expression of the small hydrophobic (SH) gene” value is on record as “inhibits RSV-specific mRNA expression”. Also, in experiment [2] (cetirizine at concentrations <0.01 μg/ml but >100 μg/ml (so in the source), similar after incubation up to 24 hours and RSV up to 5 m.o.i.), the “RSV-induced IL-8 release at the stated concentration range” value is reported as “significant reduction in RSV-induced IL-8 release”. Further, the “RSV-induced IL-8 release” value in experiment [2] (human PMN 1×10^6/ml, total incubation 2 hours at 37° C., cetirizine 100-0.01 μg/ml, dose-dependent, 8 independent experiments, FIG. 3) is given as “down-regulated the RSV-induced IL-8 release”. Further, the “Down regulation of RSV-induced IL-8 release, concentration range of strongest effect” value in experiment [3] (cetirizine concentrations >0.01 μg/ml and <10 μg/ml, strongest when added at the onset of RSV treatment) is recorded as “most pronounced”. Further, in experiment [3] (human PMN 1×10^6/ml, RSV 1 m.o.i., cetirizine 100 μg, 10 μg, 0.01 μg added immediately, 30, 60 or 90 minutes after onset of RSV treatment, total 2 hours at 37° C., FIG. 4A-D), the “ongoing IL-8 release by RSV” value is on record as “down regulates an ongoing IL-8 release by RSV”.

The values are drawn from patent US6413970B1, “Pharmaceutical composition for treating viral diseases” (UCB S.A., priority 1996, dated 2002).
